Experimental data published in US20020120098A1, “Enhanced stimulation of erythropoiesis” (priority 1996, published 2002).

Tests used:
CFU-E = experiment: Colony formation assay, adult peripheral blood LDMNC: CFU-E; assay type: cell-based, human; settings: for fold increase in CFU-E, adult blood, 0.2 U/ml Epo: ~20% O2, compared to untreated controls (no addition) at 0.2 U/ml Epo; for increase in number of CFU-E progenitors, adult blood, ambient O2 (in words): 2 U/ml Epo
Method: Blood was collected with informed consent from the antecubital vein of healthy adult human volunteers into vacutainers containing 143 USP U/ml sodium heparin. Low density mononuclear cells (LDMNC) were isolated by centrifugation over a density gradient as described in Example 1. Plastic adherent cells were removed by an overnight incubation in a tissue culture flask and the non-adherent cells were placed directly in a CFA. Conditions for the CFA are similar to those described in Examples 1-4.
The mean fold increase in adult blood BFU-E, CFU-E and CFU-GM progenitor number produced by 1.0 mg/ml HAo (15.6 μM) or HEMOLINK™ (15.6 μM), 100 μM hemin or 250 μM FeCl3 is shown in FIG. 9 (n=3). Cultures were maintained at ambient oxygen tensions (˜20% O2) for 14 days. The fold increase in colonies is expressed relative to control cells treated only with the respective vehicles. […] The magnitude of this increase was greater for adult than cord blood LDMNC.
The mean fold increase in adult blood BFU-E, CFU-E and CFU-GM progenitor number at 5% O2 is shown in FIG. 10 with the same additives. Results are expressed relative to control cells treated only with the respective vehicles and cultured at ambient oxygen tensions (˜20% O2). Reduced oxygen tensions (5% O)2 enhanced the growth of BFU-E which was further increased by the addition of HAo, HEMOLINK™, hemin or FeCl3. All agents stimulated a similar increase in BFU-E number (˜9-11-fold) at 5% O2 compared to untreated control cells at ambient oxygen tensions.
Mean fold increase in adult blood BFU-E, CFU-E and CFU-GM progenitor number in the presence of reduced Epo (0.2 U/ml) (n=3) at 20% O2 is shown in FIG. 11 with and without (no addition) the additives used in FIG. 9. Results are expressed relative to control cells at 2 U/ml Epo treated only with the respective vehicles (solid line at fold expansion=1.0). […] As with cord blood, CFU-GM numbers were unaffected by reductions in Epo. The addition of HAo or HEMOLINK™ to CFAs containing 0.2 U/ml Epo stimulated ˜4.5- and ˜3.5-fold increases in BFU-E and CFU-E, respectively, compared to untreated controls (no addition), restoring the progenitor number to that obtained at 2 U/ml Epo. Hemin stimulated the greatest increase in BFU-E and CFU-E (˜9- and ˜6-fold, respectively) at 0.2 U/ml Epo versus the untreated controls (no addition). FeCl3 stimulated only a ˜2-fold increase in erythroid progenitor number at 0.2 U/ml Epo.
Mean fold increase in adult blood BFU-E, CFU-E and CFU-GM progenitor number at 5% O2 in the presence of reduced Epo (0.2 U/ml) (n=3) is shown in FIG. 12 with and without the additives used in FIG. 9. Results are expressed relative to control cells at 2 U/ml Epo treated only with the respective vehicles and cultured at ambient oxygen tensions (˜20% O2) for 14 days (solid line at fold expansion=1.0). The number of erythroid progenitors stimulated at 5% O2 and 0.2 U/ml Epo was similar to that obtained with 2.0 U/ml Epo maintained at ambient oxygen tensions (no addition).

BFU-E = experiment: Colony formation assay (CFA), cord blood LDMNC: BFU-E colonies; assay type: cell-based, human; settings: 5% O2, 0.2 U/ml Epo; 100 μM hemin, 1.0 mg/ml HAo or HEMOLINK; relative to controls at 2 U/ml Epo, ambient O2
[1] = Safety in animal experiments and Phase I clinical trial; assay type: in vivo; settings: series of animal experiments and Phase I clinical trial in humans
Excerpt: A preferred embodiment of the present invention is the therapeutic application of hemoglobin to the treatment of anemia. HEMOLINK™ is a hemoglobin based oxygen carrier intended for use as a red blood cell substitute at doses that may exceed. 100 g. […] The present invention specifically proposes the repetitive administration of HEMOLINK™ in small doses to patients with anemia of any type. The anemias most amenable to hemoglobin therapy include: (1) anemias due to insufficient Epo production, including chronic renal failure, malaria, AIDS, rheumatoid arthritis, anemia of cancer, sickle cell anemia, prematurity and late anemia associated with Rhesus hemolytic disease of the newborn; (2) anemias due to inadequate iron incorporation, including iron-deficient anemias and anemias associated with chronic disease (e.g. infection, inflammation, trauma, or neoplastic diseases); and (3) anemias due to bone marrow failure that may be idiopathic or drug-induced.

[2] = Half-life and blood level of Epo versus HEMOLINK after single i.v. administration; assay type: in vivo; settings: for HEMOLINK level: single i.v. 4 ml/kg
Excerpt: Another strategy for the co-administration of Epo and hemoglobin is to reduce the number of Epo administrations required during therapy. Several Epo therapies follow the regimen of three weekly injections, either intravenously or subcutaneously. Multiple low dose or single high dose injections of Epo are required due to its relatively short half-life in vivo. […] HEMOLINK™ has a longer half-life. […] Longer half-life of the cross-linked hemoglobin can therefore compensate for Epo which may decline at a much faster rate. Thus, hemoglobin co-administered with Epo could prolong the effectiveness of Epo and therefore this combination therapy can be used to reduce the required frequency of Epo administrations.

| Compound | fold increase in CFU-E, adult blood, 0.2 U/ml Epo (CFU-E) | increase in number of CFU-E progenitors, adult blood, ambient O2 (in words) (CFU-E) | fold increase in BFU-E at 0.2 U/ml Epo and 5% O2 (BFU-E) | safety [1] | HEMOLINK level ([2]; 0 hours post administration) | half-life of the 64 kD fraction ([2]; 0.4 g HEMOLINK/kg body weight) | half-life of the >64 kD fraction ([2]; 0.4 g HEMOLINK/kg body weight) | HEMOLINK level ([2]; 21 hours post administration) | HEMOLINK level ([2]; 42 hours post administration) | HEMOLINK level ([2]; 63 hours post administration) | HEMOLINK level ([2]; 84 hours post administration) |
| --- | --- | --- | --- | --- | --- | --- | --- | --- | --- | --- | --- |
| HAo: adult human hemoglobin obtained from red blood cells and purified by displacement chromatography; uncross linked product | ~3.5 fold | slight increases | 3.3 fold | – | – | – | – | – | – | – | – |
| C=CC1=C(C)C2=Cc3c(C=C)c(C)c4[n]3[Fe-2]35([Cl])[n]6c(c(C)c(CCC(=O)O)c6=CC6=[N+]3C(=C4)C(C)=C6CCC(=O)O)=CC1=[N+]25 [hemin] | ~6 fold | slight increases | 4 fold | – | – | – | – | – | – | – | – |
| HEMOLINK™: chemically crosslinked hemoglobin prepared by treating human hemoglobin with a polyaldehyde (O-raffinose) | ~3.5 fold | slight increases | 2.6 fold | demonstrated to be safe | 4.7 mg/mL | ~7 h | ~21 h | 1.75 mg/mL | 0.81 mg/mL | 0.39 mg/mL | 0.19 mg/mL |
